The text below walks through data of patent US9518977B2, “Microfluidic assay apparatus and methods of use” (University of Washington through its Center for …, priority 2012, dated 2016).

This assay has as its system GFP-labelled glioma cells in human GBM mouse xenograft slice. As to the kind of experiment: Drug testing on human GBM xenograft slices in microfluidic apparatus. Format: cell-based. The note with it: 1 mM TMZ in culture medium, 48 hours selective exposure, 400 μm-thick slice, epifluorescence and confocal imaging. The text has this: Two hundred thousand (200,000) viable glioma cells labelled by lentiviral GFP expression were orthotopically injected in the brain of an immunodeficient mouse following proper protocols. After approximately four weeks of tumor growth, the mouse was sacrificed and the mouse brain was then transported in ice cold culture medium prior to slicing. A vibratome tissue slicer was used to produce 400 μm-thick slices from a GBM xenograft mouse brain (the tissue was submerged in oxygenated ACSF during the slicing process). Then the slices were quickly transferred onto the PTFE membrane well inserts with pre-warmed culture medium and placed in an incubator. These slices were cultured for at least 24 hours (recovery) before being used for drug testing.
To proceed with drug testing, the GBM slice was transferred from the culture membrane well insert to the microfluidic apparatus by cutting the PTFE membrane out from the well insert and then placing it onto the plurality of open microchannels of the apparatus. […] Then the wells corresponding to the determined drug delivery channels were replaced with drug solution (1 mM of TMZ in culture medium; TMZ was chosen due to its clinical relevance to GBM), and then the apparatus was connected to a syringe pump with the total flow rate of 300 μL per hour in an incubator to initiate the drug delivery. […]
On the technique in general: In xenograft studies the graft and the host belong to different species.

“Also recorded” adds a separate entry of the source.

For the compound `Cn1nnc2c(C(N)=O)ncn2c1=O` [TMZ], the “cell death (loss of GFP-labelled glioma cells) at drug exposure regions” value is given as “selectivity of cell death in the TMZ region; also recorded: loss of GFP-labelled glioma cells”.
